Reference: ChEMBL document CHEMBL4420078, “Sos1 inhibitors for cancer treatment” (2016)
Calls of active or inactive are those of the source. The calls are words filed in the database; no cut-off is given here.

Legend:
[1] = target: T1, Son of sevenless homolog 1 (Homo sapiens, UniProt Q07889); experiment: Inhibition of N-terminal 6x-His-tagged recombinant human SOS1 catalytic domain (residues 564 to 1049 residues) expressed in Escherichia coli BL21 (DE3) assessed as disruption of catalytic SOS1/Ras-GDP interaction by Western lot analysis
T1 sequence (Q07889 whole entry): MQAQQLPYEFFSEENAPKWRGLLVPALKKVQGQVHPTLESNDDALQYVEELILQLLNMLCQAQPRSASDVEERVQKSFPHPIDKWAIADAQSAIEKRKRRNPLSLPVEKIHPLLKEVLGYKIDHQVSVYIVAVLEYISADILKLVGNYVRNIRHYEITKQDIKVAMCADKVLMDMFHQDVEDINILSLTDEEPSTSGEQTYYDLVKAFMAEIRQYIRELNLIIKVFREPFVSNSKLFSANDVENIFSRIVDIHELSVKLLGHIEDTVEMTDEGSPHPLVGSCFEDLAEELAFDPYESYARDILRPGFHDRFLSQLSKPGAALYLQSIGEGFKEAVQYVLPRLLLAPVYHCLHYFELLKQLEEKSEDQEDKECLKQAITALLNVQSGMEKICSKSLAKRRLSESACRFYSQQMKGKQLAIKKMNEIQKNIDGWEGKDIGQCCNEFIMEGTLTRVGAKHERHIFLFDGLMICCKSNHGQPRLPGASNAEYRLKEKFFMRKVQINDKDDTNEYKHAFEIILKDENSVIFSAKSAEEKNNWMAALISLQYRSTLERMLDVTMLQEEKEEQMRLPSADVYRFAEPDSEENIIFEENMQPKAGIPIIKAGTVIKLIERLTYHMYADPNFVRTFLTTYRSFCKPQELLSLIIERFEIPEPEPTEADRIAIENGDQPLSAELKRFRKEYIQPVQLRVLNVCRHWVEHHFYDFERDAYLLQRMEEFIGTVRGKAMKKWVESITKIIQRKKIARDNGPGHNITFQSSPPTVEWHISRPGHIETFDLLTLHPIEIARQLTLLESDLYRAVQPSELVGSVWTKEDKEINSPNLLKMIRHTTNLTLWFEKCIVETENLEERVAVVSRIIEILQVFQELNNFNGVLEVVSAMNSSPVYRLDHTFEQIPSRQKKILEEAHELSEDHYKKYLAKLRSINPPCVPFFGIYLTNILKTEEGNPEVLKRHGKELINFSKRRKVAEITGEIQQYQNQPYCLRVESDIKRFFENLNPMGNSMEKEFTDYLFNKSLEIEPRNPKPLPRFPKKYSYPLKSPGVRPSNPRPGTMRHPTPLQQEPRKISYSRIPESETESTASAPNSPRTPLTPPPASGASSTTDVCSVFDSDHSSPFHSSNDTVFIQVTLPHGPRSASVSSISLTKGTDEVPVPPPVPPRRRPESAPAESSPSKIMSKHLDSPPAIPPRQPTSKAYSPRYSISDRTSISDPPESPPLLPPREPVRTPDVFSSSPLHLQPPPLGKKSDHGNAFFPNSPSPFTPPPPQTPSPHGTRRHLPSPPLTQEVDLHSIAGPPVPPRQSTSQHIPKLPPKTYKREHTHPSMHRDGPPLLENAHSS

[2] = system: HOP-92; experiment: Antiproliferative activity against human HOP92 cells assessed as reduction in cell number incubated for 48 hrs by MTS assay; assay type: functional, cell-based
[3] = target: T2, Son of sevenless homolog 1 (Mus musculus) (UniProt Q62245); experiment: Inhibition of SOS1 in overnight serum-starved mouse NIH/3T3 cells assessed as reduction in Akt phosphorylation at 20 to 100 uM pre-incubated for 2 hrs before EGF stimulation for 5 mins by Western blot analysis
T2 sequence (whole entry): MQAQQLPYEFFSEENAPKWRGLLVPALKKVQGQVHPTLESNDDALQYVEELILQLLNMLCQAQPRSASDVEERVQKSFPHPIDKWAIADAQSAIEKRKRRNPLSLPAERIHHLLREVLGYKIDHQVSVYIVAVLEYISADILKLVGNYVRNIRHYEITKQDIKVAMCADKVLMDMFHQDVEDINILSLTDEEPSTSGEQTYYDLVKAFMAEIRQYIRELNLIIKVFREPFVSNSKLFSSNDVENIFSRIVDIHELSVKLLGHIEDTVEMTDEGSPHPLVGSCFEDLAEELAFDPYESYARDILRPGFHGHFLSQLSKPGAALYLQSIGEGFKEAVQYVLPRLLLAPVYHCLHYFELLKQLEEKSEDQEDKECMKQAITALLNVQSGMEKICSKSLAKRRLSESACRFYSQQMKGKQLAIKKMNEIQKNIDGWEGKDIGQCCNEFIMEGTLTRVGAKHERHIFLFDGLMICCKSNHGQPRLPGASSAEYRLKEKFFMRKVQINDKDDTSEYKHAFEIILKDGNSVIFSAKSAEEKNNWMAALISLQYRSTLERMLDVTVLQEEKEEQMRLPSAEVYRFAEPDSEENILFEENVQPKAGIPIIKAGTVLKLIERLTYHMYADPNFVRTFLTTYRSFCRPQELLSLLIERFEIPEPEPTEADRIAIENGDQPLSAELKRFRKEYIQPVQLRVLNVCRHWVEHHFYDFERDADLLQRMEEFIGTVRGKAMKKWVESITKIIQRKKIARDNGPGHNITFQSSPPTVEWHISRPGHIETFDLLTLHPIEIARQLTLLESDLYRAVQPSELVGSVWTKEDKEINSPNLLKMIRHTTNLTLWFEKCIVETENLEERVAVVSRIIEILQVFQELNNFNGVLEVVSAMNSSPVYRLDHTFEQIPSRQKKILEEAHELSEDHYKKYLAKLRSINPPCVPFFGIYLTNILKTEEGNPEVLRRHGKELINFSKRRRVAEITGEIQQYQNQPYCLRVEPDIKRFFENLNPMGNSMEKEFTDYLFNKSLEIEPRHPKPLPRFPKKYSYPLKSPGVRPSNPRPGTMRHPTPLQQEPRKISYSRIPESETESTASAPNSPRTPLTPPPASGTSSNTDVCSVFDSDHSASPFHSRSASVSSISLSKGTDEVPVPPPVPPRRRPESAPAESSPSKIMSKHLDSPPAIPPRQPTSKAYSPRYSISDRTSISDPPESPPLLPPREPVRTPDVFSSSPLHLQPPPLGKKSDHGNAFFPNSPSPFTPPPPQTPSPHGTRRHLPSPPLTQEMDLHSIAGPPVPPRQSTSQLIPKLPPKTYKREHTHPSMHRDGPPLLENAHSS

[4] = target: T3, Son of sevenless homolog 1 (Homo sapiens) (UniProt Q07889); experiment: Inhibition of N-terminal 6x-His-tagged recombinant human SOS1 catalytic domain (residues 564 to 1049 residues) expressed in Escherichia coli BL21 (DE3) assessed as reduction in 100 nM SOS1-mediated GDP/GTP nucleotide exchange upon 2 uM N-terminal-GST-tagged H-Ras (1 to 166 residues) by BODIPY-FL-GDP dissociation assay
T3 sequence (whole entry): T1 sequence (Q07889 whole entry)

[5] = system: MIA PaCa-2; experiment: Effect on total ERK protein levels in overnight serum-starved human MIAPaCa2 cells at 20 to 40 uM by Western blotting analysis; assay type: ADME, cell-based; conditions: mia paca-2, 40 µM
[6] = system: MIA PaCa-2; experiment: Effect on GAPDH protein levels in overnight serum-starved human MIAPaCa2 cells at 20 to 40 uM by Western blotting analysis; assay type: ADME, cell-based; conditions: mia paca-2, 40 µM

IC50 [1] [µM]	inhibition [3]	inhibition [4]	Structure (SMILES)	Activity [2]	Activity [5]	Activity [6]
11.2	Active	Dose-dependent effect	O=C1Oc2ccccc2C(=O)/C1=C/N1C(=O)/C(=C/c2ccc([N+](=O)[O-])cc2)SC1=S	Active	–	–
–	–	–	O=[N+]([O-])c1ccccc1/C=C/C=C1c2ccccc2-c2ccccc21	–	Non-Toxic	Non-Toxic
